Measurements reported in US20220378923A1, “BET DEGRADER” (KYOWA KIRIN CO., LTD., priority 2019, published 2022).

Key:
[1] = system: SU-DHL-4 subcutaneously transplanted tumor; assay: Antitumor effect on subcutaneous transplant model in SCID mouse, DLBCL strain SU-DHL-4, compound 1a (Test Example 3); format: in vivo; details: for T/C: V/V0 of group divided by vehicle group; for Body Weight / Tumor Volume (mm^3): male SCID mouse; for Body Weight / V/V0 (tumor growth rate) / Tumor Volume (mm^3): mean of n=5; for Tumor Volume (mm^3): compound 1a 3 mg/kg i.v. (tail vein) 5 times a week for 2 weeks
Protocol: cells of DLBCL strain SU-DHL-4 (Code No. ACC 495, Deutsche Sammlung von Mikroorganismen and Zellkulturen GmbH) suspended in a 1:1 mixed solution of PBS and matrigel (CORNING Code No. 354234) were transplanted subcutaneously to the ventral side of a male SCID mouse. Eighteen days after the transplantation, the body weight and the tumor diameter were measured, the tumor volume was calculated by the following formula, and the mice were divided into two groups (n=5) so that the average tumor volume of each group was equal.
(§1) [Tumor volume (mm^3)]=[Tumor long diameter (mm)]×[Tumor short diameter (mm)]^2×0.5
The test was conducted in two groups, a vehicle administration group and a compound 1a administration group (compound administration group). To the compound 1a administration group, a solution of compound 1a dissolved in 30% DMSO/3% Tween 80/physiological saline so as to give a final concentration of 0.6 mg/mL was administered intravenously (tail vein) at 5 mL/kg (3 mg/kg) 5 times a week for 2 weeks. To the vehicle administration group, 30% DMSO/3% Tween 80/physiological saline was administered intravenously (tail vein) at 5 mL/kg on the same schedule as the compound 1a administration group. After the start of the test, body weight and tumor diameter were measured twice a week. The tumor volume on each measurement day was calculated by the above formula. The tumor growth rate (hereinafter referred to as V/VO) was calculated by dividing the tumor volume V on each measurement day by the tumor volume VO on the test start day (Day 0). The T/C was calculated by dividing the average value (T) of V/VO of each group by the average value (C) of the vehicle administration group.

[2] = system: SU-DHL-4 subcutaneously transplanted tumor; assay: Antitumor effect on subcutaneous transplant model in SCID mouse, DLBCL strain SU-DHL-4, compound 1b (Test Example 9); format: in vivo; details: for Tumor Volume (mm^3): compound 1b 10 mg/kg i.v. (tail vein) once on the test start day; for Tumor Volume (mm^3) / Body Weight: male SCID mouse; for Tumor Volume (mm^3) / Body Weight / V/V0 (tumor growth rate): mean of n=5; for T/C: V/V0 of group divided by vehicle group
Protocol: 1×10^7 cells of DLBCL strain SU-DHL-4 (Code No. ACC 495, Deutsche Sammlung von Mikroorganismen and Zellkulturen GmbH) suspended in a 1:1 mixed solution of PBS and matrigel (CORNING Code No. 354234) were transplanted subcutaneously on the ventral side of male SCID mouse. 14 days after the transplantation, the body weight and tumor diameter were measured, the tumor volume was calculated by the following formula, and the mice were divided into two groups (n=5) so that the average tumor volume of each group was equal. E-workbook software (ID Business Solutions) was used for grouping and measurement.
as §1
To the compound 1b administration group, a solution of compound 1b dissolved in 30% DMSO/3% Tween 80/physiological saline so as to give a final concentration of 2 mg/mL was administered intravenously (tail vein) at 5 mL/kg (10 mg/kg) once on the test start day. To the vehicle administration group, 30% DMSO/3% Tween 80/physiological saline was administered intravenously (tail vein) at 5 mL/kg in the same schedule as in the compound 1b administration group. After the start of the test, body weight and tumor diameter were measured twice a week. The tumor volume on each measurement day was calculated by the above formula. The tumor growth rate (hereinafter referred to as V/VO) was calculated by dividing the tumor volume V on each measurement day by the tumor volume VO on the test start date (Day 0). The T/C was calculated by dividing the average value (T) of V/VO of each group by the average value (C) of the vehicle administration group.

[3] = Day 0, compound 1a 3 mg/kg i.v. 5 times a week for 2 weeks
[4] = Day 3, compound 1a 3 mg/kg i.v. 5 times a week for 2 weeks
[5] = Day 7, compound 1a 3 mg/kg i.v. 5 times a week for 2 weeks
[6] = Day 10, compound 1a 3 mg/kg i.v. 5 times a week for 2 weeks
[7] = Day 14, compound 1a 3 mg/kg i.v. 5 times a week for 2 weeks
[8] = Day 18, compound 1a 3 mg/kg i.v. 5 times a week for 2 weeks
[9] = compound 1a 3 mg/kg i.v. 5 times a week for 2 weeks, SCID mouse
[10] = Day 0, compound 1b 10 mg/kg i.v. once
[11] = Day 4, compound 1b 10 mg/kg i.v. once
[12] = Day 7, compound 1b 10 mg/kg i.v. once
[13] = Day 10, compound 1b 10 mg/kg i.v. once
[14] = Day 14, compound 1b 10 mg/kg i.v. once
[15] = Day 17, compound 1b 10 mg/kg i.v. once
[16] = compound 1b 10 mg/kg i.v. once, SCID mouse

## CCC(=O)N1c2ccccc2[C@H](Nc2ccc(C(=O)NCCCNC(=O)c3ccc(N[C@@H]4C[C@H](C)N(C(=O)CC)c5ccccc54)cc3)cc2)C[C@@H]1C (relative stereo) [Compound 1a, N,N′-(Propane-1,3-diyl)bis(4-{[(2S*,4R*)-2-methyl-1-propionyl-1,2,3,4-tetrahydroquinolin-4-yl]amino}benzamide)]
[1]; [3]
  T/C: 1.00
  Body Weight: 24.56 g
  V/V0 (tumor growth rate): 1.00
[1]; Day 0
  Tumor Volume (mm^3): 246.14 mm^3
[1]; [4]
  T/C: 0.71
  Body Weight: 25.36 g
  V/V0 (tumor growth rate): 1.15
[1]; Day 3
  Tumor Volume (mm^3): 284.29 mm^3
[1]; [5]
  T/C: 0.48
  Body Weight: 25.44 g
  V/V0 (tumor growth rate): 1.29
[1]; Day 7
  Tumor Volume (mm^3): 326.25 mm^3
[1]; [6]
  T/C: 0.22
  Body Weight: 25.14 g
  V/V0 (tumor growth rate): 0.85
[1]; Day 10
  Tumor Volume (mm^3): 214.74 mm^3
[1]; [7]
  T/C: 0.17
  Body Weight: 25.74 g
  V/V0 (tumor growth rate): 0.89
[1]; Day 14
  Tumor Volume (mm^3): 224.55 mm^3
[1]; [8]
  T/C: 0.16
  Body Weight: 26.23 g
  V/V0 (tumor growth rate): 1.30
[1]; Day 18
  Tumor Volume (mm^3): 325.61 mm^3
[1]; [9]
  antitumor effect on SU-DHL-4 subcutaneously transplanted tumor: potent antitumor effect
  weight loss: no weight loss was observed

## Cc1sc2c(c1C)C(c1ccc(C(=O)NCCCNC(=O)c3ccc(C4=N[C@@H](CC(=O)OC(C)(C)C)c5nnc(C)n5-c5sc(C)c(C)c54)cc3)cc1)=N[C@@H](CC(=O)OC(C)(C)C)c1nnc(C)n1-2 [Compound 1b, Di-tert-butyl 2,2′-[(6S,6′S)-({[propane-1,3-diylbis(azanediyl)]bis(carbonyl)}bis(4,1-phenylene))bis(2,3,9-trimethyl-6H-thieno[3,2-f][1,2,4]triazolo[4,3-a][1,4]diazepine-4,6-diyl)]diacetate]
[2]; Day 0
  Tumor Volume (mm^3): 208 mm^3
[2]; [10]
  T/C: 1.00
  Body Weight: 25 g
  V/V0 (tumor growth rate): 1.00
[2]; Day 4
  Tumor Volume (mm^3): 101 mm^3
[2]; [11]
  T/C: 0.31
  Body Weight: 25 g
  V/V0 (tumor growth rate): 0.49
[2]; Day 7
  Tumor Volume (mm^3): 49 mm^3
[2]; [12]
  T/C: 0.12
  Body Weight: 25 g
  V/V0 (tumor growth rate): 0.24
[2]; Day 10
  Tumor Volume (mm^3): 66 mm^3
[2]; [13]
  T/C: 0.11
  Body Weight: 26 g
  V/V0 (tumor growth rate): 0.32
[2]; Day 14
  Tumor Volume (mm^3): 87 mm^3
[2]; [14]
  T/C: 0.12
  Body Weight: 26 g
  V/V0 (tumor growth rate): 0.42
[2]; Day 17
  Tumor Volume (mm^3): 122 mm^3
[2]; [15]
  T/C: 0.13
  Body Weight: 27 g
  V/V0 (tumor growth rate): 0.59
[2]; [16]
  antitumor effect on SU-DHL-4 subcutaneously transplanted tumor: potent antitumor effect
  weight loss: no weight loss was observed
